From ChEMBL document CHEMBL1201862, “PubChem BioAssay data set” (2004) come the findings set out here.

Assay [1] deals with DNA damage-inducible transcript 3 protein (Mus musculus, UniProt P35639). Format: functional, Cricetulus griseus.
For assay [2], the system named is BJ. The experiment in a line: cytotoxicity toward Ras-transformed BJeLR fibroblasts, dose response, cell-based, alamar blue fluorescence, cherrypicked samples (AID 2631).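 Further: confirmatory dose-response assay in RAS-dependent BJ fibroblasts engineered with TERT, LT and ST, with cytotoxicity read by fluorescence.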 Format: functional. As to conditions: Homo sapiens.
For assay [3], the target named is T1, Aminopeptidase N (Plasmodium falciparum FcB1/Columbia, UniProt O96935).
T1 sequence (O96935 whole entry): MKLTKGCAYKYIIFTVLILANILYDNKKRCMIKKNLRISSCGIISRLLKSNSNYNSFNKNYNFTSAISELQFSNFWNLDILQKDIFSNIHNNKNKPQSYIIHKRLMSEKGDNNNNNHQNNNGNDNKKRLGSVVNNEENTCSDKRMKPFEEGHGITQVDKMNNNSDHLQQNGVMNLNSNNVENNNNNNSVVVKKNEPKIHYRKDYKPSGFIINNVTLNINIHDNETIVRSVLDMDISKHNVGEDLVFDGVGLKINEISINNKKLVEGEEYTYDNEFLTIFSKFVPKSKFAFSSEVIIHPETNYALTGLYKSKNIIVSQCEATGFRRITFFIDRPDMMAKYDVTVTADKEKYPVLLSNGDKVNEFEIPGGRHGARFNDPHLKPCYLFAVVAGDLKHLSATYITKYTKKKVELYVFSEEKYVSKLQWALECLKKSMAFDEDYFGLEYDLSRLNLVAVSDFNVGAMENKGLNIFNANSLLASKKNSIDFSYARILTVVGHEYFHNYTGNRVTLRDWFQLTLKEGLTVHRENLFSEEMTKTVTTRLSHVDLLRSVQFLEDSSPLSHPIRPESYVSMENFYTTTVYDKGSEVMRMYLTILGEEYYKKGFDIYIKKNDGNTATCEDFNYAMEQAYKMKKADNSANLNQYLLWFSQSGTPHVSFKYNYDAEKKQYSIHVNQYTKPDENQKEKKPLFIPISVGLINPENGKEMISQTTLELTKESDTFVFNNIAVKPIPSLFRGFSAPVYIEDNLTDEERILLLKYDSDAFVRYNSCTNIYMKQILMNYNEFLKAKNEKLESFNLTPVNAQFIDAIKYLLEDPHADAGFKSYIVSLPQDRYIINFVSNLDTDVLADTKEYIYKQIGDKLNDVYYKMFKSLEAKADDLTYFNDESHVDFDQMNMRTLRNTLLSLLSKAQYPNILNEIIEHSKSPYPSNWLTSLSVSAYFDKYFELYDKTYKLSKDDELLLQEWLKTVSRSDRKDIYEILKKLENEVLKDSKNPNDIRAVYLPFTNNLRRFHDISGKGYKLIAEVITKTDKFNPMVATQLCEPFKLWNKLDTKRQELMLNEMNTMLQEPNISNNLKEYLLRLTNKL
In words: P. falciparum M1AAP inhibitors, biochemical, fluorogenic H-Leu-NHMec substrate, 1536-well (AID 1445). On the set-up: species or system Plasmodium falciparum 3D7, 3D7.

For assay [4], the target named is T2, Caspase-3 (Homo sapiens, UniProt P42574).
T2 sequence (P42574 whole entry): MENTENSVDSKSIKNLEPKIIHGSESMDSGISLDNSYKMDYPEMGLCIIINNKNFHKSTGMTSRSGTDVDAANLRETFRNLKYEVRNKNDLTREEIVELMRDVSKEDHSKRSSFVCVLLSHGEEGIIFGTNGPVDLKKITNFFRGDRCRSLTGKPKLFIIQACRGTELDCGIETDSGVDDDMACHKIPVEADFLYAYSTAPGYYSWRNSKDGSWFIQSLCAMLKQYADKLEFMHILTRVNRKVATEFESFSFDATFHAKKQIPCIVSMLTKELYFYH
In words: Dose-response confirmation of uHTS inhibitor hits of Sentrin-Specific Protease 8 in a Caspase-3 Fluorescence assay. Format: functional.

The nature of assay [5]: Luminescence Cell-Based Dose Response HTS to Identify Inhibitors of 5'UTR Stem-Loop Driven Prion Protein mRNA Translation in H4 Neuroglioblastoma Cells. [Related pubchem assays: 1827 (Project Summary), 1813 (Primary HTS)]. Format: functional.

Activity calls are given as the source filed them.

Chain of DNA damage-inducible transcript 3 protein (P35639 whole entry): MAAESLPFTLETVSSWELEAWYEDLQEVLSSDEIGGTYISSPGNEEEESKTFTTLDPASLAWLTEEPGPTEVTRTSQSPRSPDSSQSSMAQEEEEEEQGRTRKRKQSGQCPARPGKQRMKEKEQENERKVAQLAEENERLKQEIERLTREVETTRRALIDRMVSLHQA

Regarding `CCc1nnc(NS(=O)(=O)c2ccc(NC(=S)NC(=O)/C=C/c3ccc(C(C)C)cc3)cc2)s1`, the “Absolute IC50 (CHOP)” value in assay [1] was 10 µM.
In the case of `O=C(/C=C/c1ccco1)Nc1ccc(Oc2ccccc2)cc1`, in assay [2], the concentration giving a half-maximal response (EC50) (usually the concentration that produces a half-maximal response) is 14.6 µM (active).
In the case of `CC1CC(=O)c2c(cc3c(-c4c(O)cc(O)c5c(O)c6c(cc45)OC(C)CC6=O)c(O)cc(O)c3c2O)O1` (stereo not given) [CEPHALOCHROMIN], the IC50 (in general, the concentration that inhibits the measured activity by half) in assay [3] was 64.9 µM (active).
For `COC(=O)C(O)(c1c(C)[nH]n(-c2ccccc2)c1=O)C(F)(F)F` (stereo not given), the IC50 in assay [4] was 68.9 µM (inactive).
Consider `O=C1C(Nc2ccc(O)cc2)=C/C(=N/S(=O)(=O)c2cccs2)c2ccccc21`, for which the EC50 in assay [5] is 0.236 µM (active).
